Source: patent US20220118123A1, “COMBINATION OF AR ANTAGONISTS AND TARGETED THORIUM CONJUGATES” (Bayer Aktiengesellschaft, priority 2019, published 2022)

Columns and labels:
[1] = test system: C4-2 cells; assay: in vitro cytotoxicity of PSMA-TTC with AR antagonist pre-treatment, cell titer Glo cell viability; format: cell-based; details: then PSMA-TTC dose titration (50 MBq/mg), 5 days incubation
Description: (§1) The effects of PSMA-TTC compound A′ and compound B (darolutamide, ODM-201) or compound C (enzalutamide) in PSMA overexpressing prostate cancer cell lines LNCaP and C4-2 were investigated in vitro. LNCaP (hormone sensitive) and C4-2 (hormone insensitive) cells were co-cultured in presence of either enzalutamide or darolutamide/ODM-201 and the effect on cell binding of PSMA-conjugate and cytotoxicity of PSMA-TTC was evaluated.
C4-2 and LNCaP cells were seeded in similar cell medium (RPMI/10% FBS/1% HEPES/1% MEM NEAA/1% NaPyruvate/1% L-glutamine). One day after seeding, cells were exposed to either enzalutamide (1 μM), darolutamide (=ODM-201) (10 μM) or DMSO (0.1% (v/v); reference). Seven, 14 and 21 days after co-culturing, the cells were analyzed for cell surface binding of PSMA antibody-chelator conjugate by flow cytometry. […] In addition, cells pre-treated in the presence or absence of AR antagonists at the respective concentrations entered cytotoxicity experiments using cell titer Glo (Promega) as readout for cell viability.
Respective cells pretreated for 0 or 7 days with AR antagonists were seeded on Day −1 at an appropriate cell density (e.g. 1000 cells/well). […] Cell viability was measured after incubation for 5 days in the presence of dose titrations of PSMA-TTC or corresponding controls. […]

[2] = test system: ST1273 human patient derived prostate cancer model; assay: anti-tumor activity in ST1273 patient derived prostate cancer xenograft model; format: in vivo, mice
[3] = test system: C4-2 cells; assay: cell surface binding of PSMA antibody-chelator conjugate by flow cytometry after co-culture with AR antagonists; format: cell-based; details: 10 μM darolutamide; 7, 14 and 21 days co-culturing; saturating conjugate concentrations; vs DMSO reference
Description: as §1
C4-2 and LNCaP cells were seeded in similar cell medium (RPMI/10% FBS/1% HEPES/1% MEM NEAA/1% NaPyruvate/1% L-glutamine). One day after seeding, cells were exposed to either enzalutamide (1 μM), darolutamide (=ODM-201) (10 μM) or DMSO (0.1% (v/v); reference). Seven, 14 and 21 days after co-culturing, the cells were analyzed for cell surface binding of PSMA antibody-chelator conjugate by flow cytometry. The binding of PSMA conjugate at saturating concentrations increased in both cell lines after treatment with the AR antagonists: maximal binding of PMSA conjugate was increased by 1 μM enzalutamide by 1.9 to 2.8 fold and by 10 μM darolutamide by 1.7-3.6 fold. Similar results were obtained in LNCaP cells. In addition, cells pre-treated in the presence or absence of AR antagonists at the respective concentrations entered cytotoxicity experiments using cell titer Glo (Promega) as readout for cell viability.

[4] = test system: KUCaP-1 human patient derived prostate cancer model; assay: anti-tumor activity in KUCaP-1 patient derived prostate cancer xenograft model; format: in vivo, mice; details: KUCaP-1, day 32
[5] = ST1273, 26 days after dosing/start of treatment

SMILES: CNC(=O)c1ccc(N2C(=S)N(c3ccc(C#N)c(C(F)(F)F)c3)C(=O)C2(C)C)cc1F [enzalutamide]
- sensitivity to growth inhibition by PSMA-TTC ([1]; enzalutamide 1 μM for 7 days): increased sensitivity to growth inhibition by PSMA-TTC
- complete response, share of the mice [2, 5]: 33%
- partial response, share of the mice [2, 5]: 67%
- CR, complete response (mice/group) ([2]; ST1273, day 26): (CR: 3/9,
- PR, partial response (mice/group) ([2]; ST1273, day 26): PR: 6/9)
- Response rate (RR) ([2]; ST1273, day 26, PSMA-TTC 250 kBq/kg single i.v., enzalutamide 30 mg/kg QD×28 p.o.): RR: 100%

SMILES: CC(O)c1cc(C(=O)N[C@@H](C)Cn2ccc(-c3ccc(C#N)c(Cl)c3)n2)n[nH]1 (stereo partly drawn) [darolutamide, N-((S)-1-(3-(3-Chloro-4-cyanophenyl)-1H-pyrazol-1-yl-)-propan-2-yl)-5-(1-hydroxyethyl)-1H-pyrazole-3-carboxamide]
- sensitivity to growth inhibition by PSMA-TTC ([1]; darolutamide 10 μM for 7 days): increased sensitivity to growth inhibition by PSMA-TTC
- increase of maximal binding of PSMA conjugate [3]: 1.7-3.6 fold
- PD, progressive disease (mice/group) [4]: (PD: 10/10)
- Response rate (RR) ([4]; PSMA-TTC 150 kBq/kg i.v., darolutamide 200 mg/kg QD p.o.): RR: 0%
